The values below are quoted from earlier work in patent US6447754B1, “Oral rinse methods and compositions” (AkPharma Inc., priority 2000, dated 2002).

For the data set the following is noted: in animals; ingestion.

For “1,2,3-propanetriol, mono(dihydrogen phosphate) calcium salt (1:1) [CGP]”, the “upper limit of CGP which can safely be ingested” value is given as “greater than 5 grams of CGP per kilogram of body weight”.
